From patent US8158589B2, “Peptides with the capacity to bind to transforming growth factor β1 (TGF-β1)” (Proyecto Biomedicine Cima, S.L., priority 2003, dated 2012)
Ends that are not written are not given here.

Key:
TGF-β1 [1] = biological target: T1, TGF-β1 (Mus musculus, UniProt P04202); experiment: Bleomycin-induced pulmonary fibrosis, therapeutic treatment started ten days after bleomycin; type: in vivo, mice
T1 construct: from tissue; host or cells: liver of Balb/C mice (CCl4 model); lung of C57BL/6 mice (bleomycin model)
Experimental: Female C57BL/6 mice (6-8 weeks of age) were obtained from Harlan SL (Barcelona, Spain) and maintained in accordance with the ethical committee of Universidad de Navarra (Spain) for the experimental use of animals. Lung injury was induced with 0.08 units/mouse of bleomycin sulfate (Sigma, Spain) diluted in 200 μl of phosphate buffered saline (PBS). Briefly, the suspension of bleomycin was instilled by pippeting into the nose of mice previously anesthetized with 2% isoflurane vapor. PBS was instilled in mice as a negative control for pulmonary fibrosis (PF), following the same procedures. Peptide treatment was started two days after bleomycin challenge and it was administered intraperitoneally in 500 μl of PBS on alternate days. Mice received high (75 μg/mouse) or low (25 μg/mouse) doses of P17, or the high dose (75 μg/mouse) of control peptide P301. Lungs were obtained 15 or 26 days after bleomycin administration to evaluate profibrogenic gene expression or histological damage, respectively. To study the therapeutic effect of P17 in the development of fibrosis, it was administered daily ten days after bleomycin challenge, once fibrosis was established. […]
Lungs were fixed by inflation with 4% paraformaldehyde overnight and dehydrated in 70% ethanol. […] Percentage of fibrosis in the lung was evaluated by light microscopy by three different qualified persons using a blinded system.

TGF-β1 [2] = biological target: T2, TGF-β1 (Homo sapiens, UniProt P01137); set-up: purchased R&D Systems; host or cells: added to IMR-90 human lung fibroblasts; settings: lung fibroblasts, Dotor et al. Cytokine 2007; cited from earlier work
Target sequence in this assay (P01137 279-390 limits assumed): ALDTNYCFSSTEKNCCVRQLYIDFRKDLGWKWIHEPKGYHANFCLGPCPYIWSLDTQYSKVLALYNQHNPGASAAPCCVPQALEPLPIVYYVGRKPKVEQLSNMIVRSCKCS

TGF-β1 [3] = biological target: T2, TGF-β1; type: cell-based; set-up: purchased Roche; host or cells: added to Mv-1-Lu (CCL-64) mink lung epithelial cells
Description: The cell line Mv-1-Lu (CCL-64, […], Virginia, USA) derives from mink pulmonary epithelium, grows as a monolayer, and responds to the presence of TGF-β1 by decreasing its proliferation (FIG. 5). Thus, the peptide-mediated inhibition of this cytokine is able to restore cell growth and reflects the capacity of the different peptides to inhibit the biological activity of TGF-β1 in vitro. The peptides tested were obtained by peptide synthesis, in accordance to conventional procedures (Merrifield R B. J Am Chem Soc 1963; 85:2149-2154; Atherton E et al. J Chem Soc Perkin Trans 1981; 1:538-546).
The Mv-1-Lu cells are cultured to confluence in complete medium [RPMI-1640 supplemented with L-glutamine, sodium pyruvate, antibiotics and 10% fetal bovine serum (FBS)] at 37° C. and in 5% CO2 in 162 cm^2 bottles (Costar Corporation, CA, USA). Following trypsinization, the cells are cultured in 200 μl of complete medium in 96-well plates at an initial density of 5,000 cells/well at 37° C. and in 5% CO2 during 6 hours to ensure adhesion. Then, different concentrations of the peptides to be tested are added, starting from 200 μg/ml, and following 200 pg/ml of TGF-β1 (Roche) are added. After 12 hours of incubation 1 μCi of methyl-3H-thymidine (Amersham Life Science, Buckinghamshire, United Kingdom) is added per well in 25 μl of clean medium (RPMI-1640). The plate is incubated for 12 more hours under the same conditions. Finally, the cells are harvested (Filtermate 196 Harvester, Packard), transferring the tritiated thymidine, incorporated in the course of DNA synthesis, to plates (UniFilter-96 GF/C®, Perkin Elmer). Following the addition of scintillation fluid, the radioactivity was quantified using a scintillation counter (Top Count, Microplate Scintillation Counter, Packard). As positive and negative control, use was made of the incorporation of tritiated thymidine in the absence and presence of TGF-β1, respectively. The inhibition of TGF-β1 activity in this test was calculated based on the following formula: […]
The negative control represents the incorporation of tritiated thymidine in the presence of TGF-β1 but in the absence of peptide, whereas the positive control refers to the incorporation of tritiated thymidine in the absence of TGF-β1 and peptide. Thus, according to the capacity of the peptides to revert the cytokine repressor effect on Mv-1-Lu cell line proliferation, percentage of TGF-β1 biological activity inhibition by the peptides can be measured (Table 2).
Comparisons have been made of the activity of truncated peptides (derived from peptide sequence SEQ ID NO: 17) versus the complete sequence, in terms of the capacity to revert the suppressor effect of TGF-β1 upon proliferation of the Mv-1-Lu cell line. To this effect, and to determine the minimum sequence of peptide SEQ ID NO: 17 capable of inhibiting the biological activity of TGF-β1 in vitro, truncated versions of this peptide were synthesized, with truncation at the N-terminal end, C-terminal end or in both ends of the molecule. The peptides tested were obtained by peptide synthesis following conventional procedures (Merrifield R B. J Am Chem Soc 1963; 85:2149-2154; Atherton E et al. J Chem Soc Perkin Trans 1981; 1:538-546). Following the same methodology described in Example 2, the activity of truncated peptides versus the complete sequence of the peptide SEQ ID NO: 17 was quantified, in terms of a proliferation assay of the Mv-1-Lu cell line.
Target sequence in this assay (P01137 279-390 limits assumed, species assumed): as the sequence (P01137 279-390 limits assumed) above

T1 sequence (P04202 279-390 limits assumed): as the sequence (P01137 279-390 limits assumed) above, with A75S counted along it

Sequence: KRIWFIPRSSWYERA [SEQ ID NO: 17, KRIWFIPRSSWYERA]
- lung fibrosis (Masson's Trichrome), established fibrosis (TGF-β1 [1]; 25 μg/mouse daily from day 10, day 26): No beneficial effect
- lung fibrosis (Masson's Trichrome), established fibrosis (TGF-β1 [1]; 75 μg/mouse daily from day 10, day 26, vs untreated mice): significant attenuation of fibrosis
- Smad2 phosphorylation induced by TGF-β1 (TGF-β1 [2]): decreased
- % Inhibition of in vitro TGF-β1 biological activity (TGF-β1 [3]): 28.5%
